Data taken from ChEMBL document CHEMBL3507680, “University of Dundee, Gates Library screen for HepG2 cell viability”.

experiment: Human HepG2 cell viability assay in 384 well format; format: toxicity, cell-based; set-up: dose 125 nL, time 70.5 hour; concentration not given beside the values; settings: HepG2 cells, read-out: Inhibition

SMILES | cytotoxicity at 70.5 h
COc1ccc(Cc2ncc3c(n2)CN(C(=O)C(C)(C)OC)C3)cc1 | -6.62%
COC1CCN(c2cc(C(C)C)nc3ccnn23)C1 (stereo not given) | 5.73%
Cc1cc(CNC(=O)c2cn(CCC3CCCCN3)nn2)on1 (stereo not given) | -5.72%
COCc1ccc(C(=O)N2CCC(Oc3ccccc3)(C(=O)O)CC2)o1 | 17.3%
OCCNc1cc(N2CCC(n3cc(C4CCCC4)nn3)CC2)ncn1 | -10.7%
Cc1c(C(=O)NCCC2CN(C)CCO2)n(C)c2c(C)cccc12 (stereo not given) | -27%
NC(=O)CCN1CCc2onc(-c3ccccc3F)c2C1 | -11.6%
CCN(Cc1noc(C)n1)C(=O)C(c1ccc(C)cc1)N(C)C (stereo not given) | -0.785%
CCSCCNC(=O)c1ccc(S(=O)(=O)N2C[C@@H]3C[C@H]2CN3)cc1 | -4.95%
Cc1nc(N2CCOc3ccc(CO)cc3C2)c2c(C)noc2n1 | -2.39%
CCCN1CC2(CCN(C)CC2)CC1C(=O)NCCn1cc(C)cn1 (stereo not given) | -4.52%
CCN(C)c1ccc(C(=O)NCCCc2ccccn2)cn1 | -4.13%
Cc1oc(-c2cccc(F)c2F)nc1CN(CCO)C(C)C | -8.53%
c1ccc2c(c1)CCN(c1nc(-c3ccncc3)nc3c1CCNC3)C2 | 23.9%
Cc1nc2cc(C(=O)N3C[C@@H](C(=O)O)[C@H](c4ccncc4)C3)ccc2[nH]1 | -3.63%
Cc1nc[nH]c1-c1nccn1CCCN(C)C | 6.24%
CS(=O)(=O)CC(=O)N(CCN1CCOCC1)Cc1ccco1 | 22.7%
COc1cccc(C2CCN2C(=O)c2cnccn2)c1 (stereo not given) | -2.61%
CCCN1C[C@H]2CC[C@@H]1CN(Cc1ccc(-n3cccn3)cc1)C2 | 23.7%
O=C(C1CNCCN1C(=O)CCc1cccnc1)N1CCOCC1 (stereo not given) | 3.27%
CCCNc1ncc(CN2CCC3(CC2)CNC(=O)C3)cn1 | 12.6%
Cc1nc(NCc2scnc2-c2ccccc2)cc(C2CCNCC2)n1 | -6.26%

SMILES | cytotoxicity at 70.5 h
O=C1NCC2(CCCN(C(=O)c3ccc4c(c3)CCCO4)CC2)O1 (stereo not given) | 4.55%
CC(C)C(NC(N)=O)C(=O)N1CCN(c2ccccc2Cl)C(=O)C1 (stereo not given) | -9.59%
Cc1cccc(C(C(=O)N(C)Cc2ccon2)N(C)C)c1 (stereo not given) | -0.0384%
CCc1cc(CN(C)C(=O)c2cnon2)on1 | -2.96%
CC(=O)c1ccn(CC(=O)Nc2nn(CC3CC3)c3ccccc23)n1 | -10.7%
COCCCNCc1cc(O)c2cc(C)cc(C)c2n1 | -5.24%
COc1cccc(CN2CCN(CC(C)C)C(=O)C2C)c1O (stereo not given) | 0.611%
Cc1nc(N(C)C2CCCCC2)ncc1C(C)NC(=O)c1cscn1 (stereo not given) | 1.66%
Cc1ccnc(NCCSc2nccn2C)n1 | -5.33%
CC(Cn1cncn1)NC1CCN(Cc2cccc(O)c2)CC1 (stereo not given) | -2.81%
COCCN(C)C[C@@H]1CN(Cc2ccnc3ccccc23)C[C@@H]1CO | -16.1%
COc1ccc(C(=O)C2CCCN(c3cc(C#N)ccn3)C2)cc1OC (stereo not given) | -5.09%
CN(C)CCN1CC(C(=O)N(C)Cc2cc3cc(F)ccc3[nH]2)CC1=O (stereo not given) | -7.58%
O=C1N(C2CCCCC2)CCCC12CCN(S(=O)(=O)c1cccnc1)C2 (stereo not given) | -5.02%
O=C(C1CC(=O)N(C2CC2)C1)N1CCN(CCn2cccc2)CC1 (stereo not given) | -1.53%
COCC(=O)NCc1cccnc1-n1cnc2ccccc21 | -0.396%
Cc1nc[nH]c1CN1CCCn2nc(CN3CCC(F)(F)CC3)cc2C1 | -9.44%
COC(=O)C(C)NCc1ccc2[nH]c(C)c(C)c2c1 (stereo not given) | -0.287%
CCC(NC1CSCCSC1)c1ccc(S(C)(=O)=O)cc1 (stereo not given) | -14.2%
Cc1ccc(CN2CCN(Cc3ccc(N(C)C)nc3)CC2=O)cc1C | -1.36%
O=C(NCCc1nc(C2CC2)no1)[C@H]1CNC[C@H](C(=O)N2CCCC2)C1 | -1.74%
CSc1cccc(CN(C)C(=O)c2ccc(C3CCCNC3)cc2)c1 (stereo not given) | -7.25%

SMILES | cytotoxicity at 70.5 h
CCOC(=O)C1(Cc2ccccc2)CCCN(Cc2nccn2CC)C1 (stereo not given) | -0.0866%
OC1(CN2CCCC2)COCCN(c2cc(C(F)(F)F)ccn2)C1 (stereo not given) | -7.83%
Cc1ccc(F)cc1CC(=O)N(CCN1CCOCC1)Cc1ccco1 | -6.95%
Cc1ccc(NC(=O)CNC(C)Cc2ccsc2)cc1F (stereo not given) | -8.47%
CN1CCCC1CCn1ccnc1-c1nc(-c2ccccc2)no1 (stereo not given) | 16.5%
CCn1cc(CN2CCCN(C3Cc4ccccc4C3)CC2)c(C)n1 | 24.3%
O=C(O)c1cccc(C2CCCN(S(=O)(=O)N3CCOCC3)C2)c1 (stereo not given) | -7.39%
Cc1ccc(CN2CCN(c3cncc(N(C)C)n3)CC2=O)cc1C | -7.53%
CNC(=O)c1nc(CN2CCOC(CCCC(C)C)C2)no1 (stereo not given) | -16.2%
COc1ccc(OC)c(C2CCN(C(=O)C3CCS(=O)(=O)CC3)C2)c1 (stereo not given) | -7.16%
O=C(N[C@H]1COC[C@@H]1N1CCCC1)c1csc(-c2cccs2)n1 | -10.9%
Cn1ccc(C2CCCCN2C(=O)c2cccc(Cn3cccn3)c2)n1 (stereo not given) | 8.89%
COc1ncc(-c2c(C#N)c(N)nc3c2CCc2[nH]ccc2-3)cn1 | -4.69%
COC1CCCN(c2nc(C)nc3c2CCN(Cc2ccco2)CC3)C1 (stereo not given) | 8.06%
NC(=O)c1csc(N2CCCC(c3n[nH]c(=O)n3-c3ccccc3)C2)n1 (stereo not given) | -6.33%
Cc1nccn1Cc1nnc(C2CCCN(Cc3ccncc3)C2)n1C (stereo not given) | -17.2%
CCC(NC(=O)c1cnc(N(C)C)nc1C)c1ccc(S(C)(=O)=O)cc1 (stereo not given) | -8.61%
Cc1ccc(C)c2c(O)cc(CNCc3ccc(S(N)(=O)=O)cc3)nc12 | -4.39%
CCc1oc(C(=O)N2CC[C@H]3CC[C@@H](C2)N3)cc1CN(CC)CC | -8.75%
CCC[C@@H]1CN(Cc2ccc(C(F)(F)F)nc2)C[C@H]1NS(C)(=O)=O | 11.1%
CCN(CC)S(=O)(=O)N1CCC(c2nccn2Cc2ccccn2)CC1 | 12.4%
NCC(=O)N1CCCC1c1ccc(C(=O)NCc2ccoc2)s1 (stereo not given) | -2.34%

SMILES | cytotoxicity at 70.5 h
O=C1N(CCC2CCCCC2)CCCC1(O)CNCCc1ccccc1 (stereo not given) | 0.277%
CN(c1ncccc1CNC(=O)c1cscn1)C1CCCCC1 | 0.847%
O=C(c1cn2ccsc2n1)N1CCOCC(O)(CN2CCCC2)C1 (stereo not given) | 1.73%
Cc1cc(N2CCCN(C(C(=O)O)c3cccc(C)c3F)CC2)ccn1 (stereo not given) | 3.14%
C[C@@H]1CN(C2CCN(c3ccccc3)CC2)CC[C@@]1(O)C1CCOCC1 | -3.71%
Cc1ncc(CN2CCN(C(=O)C3CCC3)[C@@H]3CS(=O)(=O)C[C@@H]32)cn1 | -16.2%
O=C(CN1CCCCCC1)NCc1cccnc1Oc1ccccc1 | -2.72%
CCOC(=O)N1CCCn2nc(C(=O)NCCN(C)C)cc2C1 | -6.9%
Cn1nccc1C(=O)N1CCC(n2cc(-c3ccsc3)nn2)CC1 | -3.85%
CN(C)CC1(O)CCN(C(=O)c2ccc(-n3cnnc3)cc2Cl)C1 (stereo not given) | 7.55%
COCCCN1CC2(CCCN(c3ncnc4[nH]ccc34)C2)CCC1=O (stereo not given) | -6.33%
Cc1nccn1CCCC(=O)N1CCC2(CCC(=O)N(C(C)C)C2)CC1 | -4.22%
CN1C[C@H]2CNC[C@@]2(C(=O)N2CCN(c3ncccc3C#N)CC2)C1 | -6.13%
Cc1ccc(C(=O)N2C[C@@H](C(=O)O)[C@H](c3ccncc3)C2)cc1F | -5.6%
O=C(CN1CCOC1=O)N(Cc1ccccc1)Cc1nccs1 | -14.3%
Cc1noc(C)c1CN1C(=O)[C@H]2CC[C@@H]1CN(Cc1cccc(O)c1)C2 | 5.47%
O=C(CN1CCOCS1(=O)=O)NCCc1ccc(Cl)cc1 | -9.99%
CC1CNC(=O)CCN1Cc1cc(O)c2cccc(F)c2n1 (stereo not given) | -6.4%
O=C(CCCc1ccc(Cl)cc1)N1CCN(C(=O)c2ccc[nH]2)CC1 | 1.45%
COc1ccnc(N2CCC3(CCCN(CC4CC4)C3=O)C2)n1 (stereo not given) | -6.47%
CCN1CCN(C[C@@H]2CN(c3ncccc3Cl)C[C@@H]2CO)CC1 | -3.91%
COc1cc(Oc2ccc(C(N)=O)cn2)ccc1CN1CCCC1 | -6.89%

SMILES | cytotoxicity at 70.5 h
Cc1ccc(OCc2occc2C(=O)N2CC[C@H](CO)[C@@H](O)C2)cc1 | -8.34%
CCS(=O)(=O)N(C)CCCNCc1c(C)nn(C)c1N(C)C | -2.24%
Cc1nc(CC(=O)N2CCc3nnc(N(C)C)cc3C2)cs1 | 0.153%
Cc1nn(C)c(N(C)C)c1CNCCCN(C(C)C)S(C)(=O)=O | 8.55%
CCS(=O)(=O)NCCCNCc1c(C)nn(C)c1N(C)C | 21.5%
Cc1cc(C(=O)O)cc(S(=O)(=O)Nc2ccc3c(c2)OCCCO3)c1C | -5.74%
CC(C)CN(Cc1nc2c(cnn2C)c(=O)[nH]1)CC(C)C | -5.64%
CCC(C)N(CCOC)Cc1nc2c(cnn2C)c(=O)[nH]1 (stereo not given) | 17.1%
CN(CCC(F)(F)F)C(=O)c1nc(S(C)(=O)=O)n2ccccc12 | 25.3%
CCCC(C)N(C)C(=O)c1nc(S(C)(=O)=O)n2ccccc12 (stereo not given) | 0.813%
CC(C)CC(C)N(C)C(=O)c1nc(S(C)(=O)=O)n2ccccc12 (stereo not given) | 2.74%
CS(=O)(=O)c1cccc(C(=O)N2CCCC(n3cccn3)C2)c1 (stereo not given) | 2.98%
NS(=O)(=O)Cc1cccc(C(=O)N2CCCC(n3cccn3)C2)c1 (stereo not given) | 4.57%
CN(C)c1cc2c(nn1)CCN(C(=O)Cc1ccc3c(c1)CCC3)C2 | -1.75%
CCc1ccc(C(=O)O)cc1S(=O)(=O)Nc1ccc2c(c1)OCCO2 | 4.02%
NC(=O)c1cccc(OCC(=O)NS(=O)(=O)c2ccc3c(c2)CCC3)c1 | -0.191%
COCc1nc(C(=O)NS(=O)(=O)c2cc(C)ccc2C)cs1 | 3.09%
Cc1occc1C(=O)N1CCCN(Cc2nccn2C(C)C)CC1 | 20.3%
Cc1ccc(C(=O)N2CCN(Cc3cccs3)CC2)c(=O)[nH]1 | -3.21%
CCC(=O)NCC(=O)NCC1CCN(c2cc(Cl)ccc2C)C1 (stereo not given) | -1.96%
NC(=O)CN1CCN(C(=O)c2cc(Cl)cc3cccnc23)CC1 | 19.4%
Cc1nccc(C(=O)N2CCCN(Cc3nccn3C(C)C)CC2)n1 | -4.19%
